Experimental data taken from PMC5218480 (PLoS ONE, 2017).

System: MV-4-11 cells
Assay: Gene expression microarray analysis (Affymetrix PrimeView) and GSEA
Assay type: cell-based, human
Parameters: RFU PODN (11730768_x_at) / Fold change /veh PODN (11730768_x_at) / RFU LINC00158 (11744669_a_at) / Fold change /veh LINC00158 (11744669_a_at) / RFU DUSP10 (11751237_a_at) / Fold change /veh DUSP10 (11751237_a_at) / RFU ID3 (11757404_x_at) / Fold change /veh ID3 (11757404_x_at) / RFU PLEKHG5 (11737974_s_at) / Fold change /veh PLEKHG5 (11737974_s_at) / RFU LRRC4B (11730491_at) / Fold change /veh LRRC4B (11730491_at) / RFU GIMAP4 (11747438_a_at) / Fold change /veh GIMAP4 (11747438_a_at) / RFU KRT8 (11758183_x_at) / Fold change /veh KRT8 (11758183_x_at) / RFU CNN1 (11734310_a_at) / Fold change /veh CNN1 (11734310_a_at) / RFU VPS37D (11726825_at) / Fold change /veh VPS37D (11726825_at) / RFU C10orf10 (11716522_x_at) / Fold change /veh C10orf10 (11716522_x_at) / RFU KIR2DL2 /// KIR2DL4 /// KIR2DL5A /// KIR2DL5B /// KIR2DS1 /// KIR2DS2 /// KIR2DS3 /// KIR2DS4 /// KIR3DL3 /// KIR3DL3 /// KIR3DS1 (11738374_at) / Fold change /veh KIR2DL2 /// KIR2DL4 /// KIR2DL5A /// KIR2DL5B /// KIR2DS1 /// KIR2DS2 /// KIR2DS3 /// KIR2DS4 /// KIR3DL3 /// KIR3DL3 /// KIR3DS1 (11738374_at) / RFU C1QL1 (11718748_at) / Fold change /veh C1QL1 (11718748_at) / RFU TMPRSS4 (11747572_a_at) / Fold change /veh TMPRSS4 (11747572_a_at) / RFU HAMP (11756126_x_at) / Fold change /veh HAMP (11756126_x_at) / RFU RNFT2 (11725882_a_at) / Fold change /veh RNFT2 (11725882_a_at) / RFU NR4A2 (11747474_a_at) / Fold change /veh NR4A2 (11747474_a_at) / RFU ABCC12 (11746883_a_at) / Fold change /veh ABCC12 (11746883_a_at) / RFU TMEM136 (11760407_x_at) / Fold change /veh TMEM136 (11760407_x_at) / RFU CLDN22 /// WWC2 (11732394_at) / Fold change /veh CLDN22 /// WWC2 (11732394_at) / RFU HLA-DPB1 (11760878_x_at) / Fold change /veh HLA-DPB1 (11760878_x_at) / RFU SPINT1 (11716480_a_at) / Fold change /veh SPINT1 (11716480_a_at) / RFU GAP43 (11754022_s_at) / Fold change /veh GAP43 (11754022_s_at) / RFU A4GNT (11735810_at) / Fold change /veh A4GNT (11735810_at) / RFU PRB3 (11715151_x_at) / Fold change /veh PRB3 (11715151_x_at) / RFU TUBB4B (11761932_at) / Fold change /veh TUBB4B (11761932_at) / RFU CAPN14 (11732068_a_at) / Fold change /veh CAPN14 (11732068_a_at) / RFU TMCC2 (11721928_a_at) / Fold change /veh TMCC2 (11721928_a_at) / RFU IRGQ (11745062_a_at) / Fold change /veh IRGQ (11745062_a_at) / RFU FAM174B (11720279_a_at) / Fold change /veh FAM174B (11720279_a_at) / RFU TMPRSS4 (11748680_a_at) / Fold change /veh TMPRSS4 (11748680_a_at) / RFU FAM212B (11763350_a_at) / Fold change /veh FAM212B (11763350_a_at) / RFU PLEKHG5 (11743358_a_at) / Fold change /veh PLEKHG5 (11743358_a_at) / RFU ZSCAN30 (11745921_a_at) / Fold change /veh ZSCAN30 (11745921_a_at) / RFU CMKLR1 (11741424_a_at) / Fold change /veh CMKLR1 (11741424_a_at) / RFU LOC101060620 /// MAPK8IP1 (11723275_at) / Fold change /veh LOC101060620 /// MAPK8IP1 (11723275_at) / RFU SPTSSB (11747773_x_at) / Fold change /veh SPTSSB (11747773_x_at) / RFU PRSS12 (11739890_at) / Fold change /veh PRSS12 (11739890_at) / RFU BIN1 (11741810_x_at) / Fold change /veh BIN1 (11741810_x_at) / RFU WNT11 (11732464_a_at) / Fold change /veh WNT11 (11732464_a_at) / RFU C10orf10 (11716521_a_at) / Fold change /veh C10orf10 (11716521_a_at) / RFU C5orf56 (11738089_at) / Fold change /veh C5orf56 (11738089_at) / RFU CYB561 (11721691_x_at) / Fold change /veh CYB561 (11721691_x_at) / RFU ANKRD19P (11752326_a_at) / Fold change /veh ANKRD19P (11752326_a_at) / RFU OR2T12 /// OR2T33 /// OR2T8 (11738714_s_at) / Fold change /veh OR2T12 /// OR2T33 /// OR2T8 (11738714_s_at) / RFU VCAN (11748164_a_at) / Fold change /veh VCAN (11748164_a_at) / RFU JSRP1 (11732532_at) / Fold change /veh JSRP1 (11732532_at) / RFU KRTAP10-11 (11738290_x_at) / Fold change /veh KRTAP10-11 (11738290_x_at) / RFU MYO3A (11730013_a_at) / Fold change /veh MYO3A (11730013_a_at) / RFU EBF3 (11725865_a_at) / Fold change /veh EBF3 (11725865_a_at) / RFU CAMK2N1 (11719241_x_at) / Fold change /veh CAMK2N1 (11719241_x_at) / RFU C5orf56 (11738088_a_at) / Fold change /veh C5orf56 (11738088_a_at) / RFU OLFML3 (11715873_a_at) / Fold change /veh OLFML3 (11715873_a_at) / RFU LOC100653217 /// NTM (11731650_a_at) / Fold change /veh LOC100653217 /// NTM (11731650_a_at) / RFU MAPK11 (11762145_a_at) / Fold change /veh MAPK11 (11762145_a_at) / RFU FIZ1 (11724087_x_at) / Fold change /veh FIZ1 (11724087_x_at) / RFU OASL (11726364_x_at) / Fold change /veh OASL (11726364_x_at) / RFU SOX15 (11748057_x_at) / Fold change /veh SOX15 (11748057_x_at) / RFU CD79A (11719716_a_at) / Fold change /veh CD79A (11719716_a_at) / RFU HIST1H1D (11736915_at) / Fold change /veh HIST1H1D (11736915_at) / RFU CASKIN2 (11723855_a_at) / Fold change /veh CASKIN2 (11723855_a_at) / RFU LOC730098 (11760151_x_at) / Fold change /veh LOC730098 (11760151_x_at) / RFU OR4N2 (11742367_at) / Fold change /veh OR4N2 (11742367_at) / RFU PRRT2 (11749266_a_at) / Fold change /veh PRRT2 (11749266_a_at) / RFU SNX32 (11753110_a_at) / Fold change /veh SNX32 (11753110_a_at) / RFU CDHR5 (11726645_a_at) / Fold change /veh CDHR5 (11726645_a_at) / RFU RCAN1 (11760418_a_at) / Fold change /veh RCAN1 (11760418_a_at) / RFU FAM167A (11723789_a_at) / Fold change /veh FAM167A (11723789_a_at) / RFU FAM26E (11764081_at) / Fold change /veh FAM26E (11764081_at) / RFU ISYNA1 (11749810_s_at) / Fold change /veh ISYNA1 (11749810_s_at) / RFU ACY1 (11761880_at) / Fold change /veh ACY1 (11761880_at) / RFU 11764098_at / Fold change /veh 11764098_at / RFU SAMD14 (11745864_x_at) / Fold change /veh SAMD14 (11745864_x_at) / RFU NPB (11741838_a_at) / Fold change /veh NPB (11741838_a_at) / RFU TMPRSS6 (11731388_a_at) / Fold change /veh TMPRSS6 (11731388_a_at) / RFU KRTAP10-2 (11738614_at) / Fold change /veh KRTAP10-2 (11738614_at) / RFU ARHGAP8 /// PRR5-ARHGAP8 (11727945_x_at) / Fold change /veh ARHGAP8 /// PRR5-ARHGAP8 (11727945_x_at) / RFU KRTAP5-7 /// NADSYN1 (11734609_at) / Fold change /veh KRTAP5-7 /// NADSYN1 (11734609_at) / RFU RASL12 (11751679_a_at) / Fold change /veh RASL12 (11751679_a_at) / RFU CDKN2B (11736163_a_at) / Fold change /veh CDKN2B (11736163_a_at) / RFU PRF1 (11729649_at) / Fold change /veh PRF1 (11729649_at) / RFU, ZNF638 /// ZNF638-IT1 / Fold change vs veh, ZNF638 /// ZNF638-IT1 / RFU, PANK3 / Fold change vs veh, PANK3 / RFU, SH3YL1 / Fold change vs veh, SH3YL1 / RFU, ZEB2 / Fold change vs veh, ZEB2 / RFU, NRIP1 / Fold change vs veh, NRIP1 / RFU, PTTG1IP / Fold change vs veh, PTTG1IP / RFU, CAPN2 / Fold change vs veh, CAPN2 / RFU, MED14 / Fold change vs veh, MED14 / RFU, SNORA58 / Fold change vs veh, SNORA58 / RFU, C1orf63 / Fold change vs veh, C1orf63 / RFU, LRRFIP1 / Fold change vs veh, LRRFIP1 / RFU, NDUFAF7 / Fold change vs veh, NDUFAF7 / RFU, SLC12A2 / Fold change vs veh, SLC12A2 / RFU, IBTK / Fold change vs veh, IBTK / RFU, ESF1 / Fold change vs veh, ESF1 / Fold change vs veh, TMEM50B / RFU, TAOK1 / Fold change vs veh, TAOK1 / RFU, ACBD3 / Fold change vs veh, ACBD3 / RFU, TMA16 / Fold change vs veh, TMA16 / RFU, RWDD3 / Fold change vs veh, RWDD3 / RFU, BCAT1 / Fold change vs veh, BCAT1 / RFU, EDEM3 / Fold change vs veh, EDEM3 / RFU, TMEM33 / Fold change vs veh, TMEM33 / RFU, WDR75 / Fold change vs veh, WDR75 / RFU, AHCTF1 / Fold change vs veh, AHCTF1 / RFU, TFRC / Fold change vs veh, TFRC / RFU, ZDHHC17 / Fold change vs veh, ZDHHC17 / RFU, NOM1 / Fold change vs veh, NOM1 / RFU, ARL8B / Fold change vs veh, ARL8B / RFU, ZBTB11 / Fold change vs veh, ZBTB11 / RFU, TAMM41 / Fold change vs veh, TAMM41 / RFU, KIAA1704 /// LOC100996395 / Fold change vs veh, KIAA1704 /// LOC100996395 / RFU, ING1 / Fold change vs veh, ING1 / RFU, TRMT61B / Fold change vs veh, TRMT61B / RFU, FUBP3 / Fold change vs veh, FUBP3 / RFU, TP53 / Fold change vs veh, TP53 / RFU, TNKS2 / Fold change vs veh, TNKS2 / RFU, ZFP14 / Fold change vs veh, ZFP14 / RFU, ACTR2 / Fold change vs veh, ACTR2 / RFU, PPP3R1 / Fold change vs veh, PPP3R1 / RFU, PIK3R1 / Fold change vs veh, PIK3R1 / RFU, HNRNPA1 / Fold change vs veh, HNRNPA1 / RFU, RNF170 / Fold change vs veh, RNF170 / RFU, ZNF28 / Fold change vs veh, ZNF28 / RFU, RNGTT / Fold change vs veh, RNGTT / RFU, OGT / Fold change vs veh, OGT / RFU, BRD1 / Fold change vs veh, BRD1 / RFU, MARS / Fold change vs veh, MARS / RFU, ZNF655 / Fold change vs veh, ZNF655 / RFU, FAHD1 / Fold change vs veh, FAHD1 / RFU, BDP1 / Fold change vs veh, BDP1 / RFU, LRRCC1 / Fold change vs veh, LRRCC1 / RFU, ARID1A / Fold change vs veh, ARID1A / RFU, ZNF146 / Fold change vs veh, ZNF146 / RFU, ZNF330 / Fold change vs veh, ZNF330 / RFU, GPN3 / Fold change vs veh, GPN3 / RFU, C9orf123 / Fold change vs veh, C9orf123 / RFU, N4BP2L2 / Fold change vs veh, N4BP2L2 / RFU, ARFIP1 / Fold change vs veh, ARFIP1 / RFU, FAM179B / Fold change vs veh, FAM179B / RFU, BCL10 / Fold change vs veh, BCL10 / RFU, UHRF1BP1L / Fold change vs veh, UHRF1BP1L / RFU, BET1 / Fold change vs veh, BET1 / RFU, CNOT2 / Fold change vs veh, CNOT2 / RFU, ZNF268 / Fold change vs veh, ZNF268 / Fold change vs veh, ZNF507 / RFU, DGCR2 / Fold change vs veh, DGCR2 / RFU, WDSUB1 / Fold change vs veh, WDSUB1 / Fold change vs veh, HSP90B1 /// MIR3652 / RFU, ADSS / Fold change vs veh, ADSS / RFU, GK / Fold change vs veh, GK / RFU, ZNF148 / Fold change vs veh, ZNF148 / RFU, TAF9 / Fold change vs veh, TAF9 / RFU, SLC1A5 / Fold change vs veh, SLC1A5 / RFU, SLMO2 / Fold change vs veh, SLMO2 / RFU, ABCC4 / Fold change vs veh, ABCC4 / RFU, LOC101060439 /// RAP1B / Fold change vs veh, LOC101060439 /// RAP1B / RFU, RFX7 / Fold change vs veh, RFX7 / RFU, GTPBP10 / Fold change vs veh, GTPBP10 / RFU, CNEP1R1 / Fold change vs veh, CNEP1R1 / RFU, BIVM-ERCC5 /// ERCC5 / Fold change vs veh, BIVM-ERCC5 /// ERCC5 / RFU, ILF3 / Fold change vs veh, ILF3 / RFU 11762660_at / Fold change /veh 11762660_at / RFU VCAN (11757783_s_at) / Fold change /veh VCAN (11757783_s_at) / RFU DDX43 (11728927_at) / Fold change /veh DDX43 (11728927_at) / RFU KRT8 (11758188_x_at) / Fold change /veh KRT8 (11758188_x_at) / RFU NKD1 (11759106_at) / Fold change /veh NKD1 (11759106_at) / RFU SRD5A1 (11742802_a_at) / Fold change /veh SRD5A1 (11742802_a_at) / RFU TPSAB1 /// TPSB2 (11721975_s_at) / Fold change /veh TPSAB1 /// TPSB2 (11721975_s_at) / RFU GSTM3 (11746129_a_at) / Fold change /veh GSTM3 (11746129_a_at) / RFU IL23R (11737362_x_at) / Fold change /veh IL23R (11737362_x_at) / RFU TMEM51 (11727254_a_at) / Fold change /veh TMEM51 (11727254_a_at) / RFU PIWIL2 (11732686_x_at) / Fold change /veh PIWIL2 (11732686_x_at) / RFU ORM1 (11744905_x_at) / Fold change /veh ORM1 (11744905_x_at) / RFU CCDC152 (11743942_at) / Fold change /veh CCDC152 (11743942_at) / RFU ECM1 (11717891_a_at) / Fold change /veh ECM1 (11717891_a_at) / RFU IL23R (11748794_a_at) / Fold change /veh IL23R (11748794_a_at) / RFU TNFAIP8L3 (11732012_x_at) / Fold change /veh TNFAIP8L3 (11732012_x_at) / RFU MBOAT4 (11741988_at) / Fold change /veh MBOAT4 (11741988_at) / RFU 11764193_at / Fold change /veh 11764193_at / RFU TMEM53 (11763286_at) / Fold change /veh TMEM53 (11763286_at) / RFU MAGEB2 (11727129_at) / Fold change /veh MAGEB2 (11727129_at) / RFU TMEM200A (11744735_a_at) / Fold change /veh TMEM200A (11744735_a_at) / RFU CCDC152 (11751479_a_at) / Fold change /veh CCDC152 (11751479_a_at) / RFU FAM211A (11726209_a_at) / Fold change /veh FAM211A (11726209_a_at) / RFU RGS16 (11746705_a_at) / Fold change /veh RGS16 (11746705_a_at) / RFU VCAN (11755009_s_at) / Fold change /veh VCAN (11755009_s_at) / RFU RHOB (11743442_s_at) / Fold change /veh RHOB (11743442_s_at) / RFU RGS16 (11720943_a_at) / Fold change /veh RGS16 (11720943_a_at) / RFU RGS16 (11720944_at) / Fold change /veh RGS16 (11720944_at) / RFU, VPS4B / Fold change vs veh, VPS4B / RFU, CREB1 / Fold change vs veh, CREB1 / RFU, DNAJC13 / Fold change vs veh, DNAJC13 / RFU, GNAQ / Fold change vs veh, GNAQ / RFU, CDK5R1 / Fold change vs veh, CDK5R1 / RFU, ZRANB3 / Fold change vs veh, ZRANB3 / RFU, CUL4A / Fold change vs veh, CUL4A / RFU, CCNY / Fold change vs veh, CCNY / RFU, UFL1 / Fold change vs veh, UFL1 / RFU, COG3 / Fold change vs veh, COG3 / RFU, DIAPH2 / Fold change vs veh, DIAPH2 / RFU, SKA2 / Fold change vs veh, SKA2 / RFU, AFF3 / Fold change vs veh, AFF3 / RFU, LMF1 / Fold change vs veh, LMF1 / RFU, IPO11 / Fold change vs veh, IPO11 / RFU, DFFB / Fold change vs veh, DFFB / RFU, FOXP1 / Fold change vs veh, FOXP1 / RFU, CARD8 / Fold change vs veh, CARD8 / RFU, STRN3 / Fold change vs veh, STRN3 / RFU, ADK / Fold change vs veh, ADK / RFU, RASSF2 / Fold change vs veh, RASSF2 / RFU, WIPF1 / Fold change vs veh, WIPF1 / RFU, LARP1B / Fold change vs veh, LARP1B / RFU, RASA1 / Fold change vs veh, RASA1 / RFU, RB1 / Fold change vs veh, RB1 / RFU, PPFIA1 / Fold change vs veh, PPFIA1 / RFU, MAT2A / Fold change vs veh, MAT2A / RFU, CCT5 / Fold change vs veh, CCT5 / RFU, WDR92 / Fold change vs veh, WDR92 / RFU, CUX1 / Fold change vs veh, CUX1 / RFU, TTC7A / Fold change vs veh, TTC7A / RFU, TMEM135 / Fold change vs veh, TMEM135 / RFU, DEPTOR / Fold change vs veh, DEPTOR / RFU, CPM / Fold change vs veh, CPM / RFU, DNAJB6 / Fold change vs veh, DNAJB6 / RFU, CACNA2D3 / Fold change vs veh, CACNA2D3 / RFU, DTX4 / Fold change vs veh, DTX4 / RFU, TFCP2 / Fold change vs veh, TFCP2 / RFU, GMCL1 /// GMCL1P1 / Fold change vs veh, GMCL1 /// GMCL1P1 / RFU, AEBP2 / Fold change vs veh, AEBP2 / RFU, SNHG1 /// SNORD22 /// SNORD25 /// SNORD26 /// SNORD27 /// SNORD28 /// SNORD29 /// SNORD31 / Fold change vs veh, SNHG1 /// SNORD22 /// SNORD25 /// SNORD26 /// SNORD27 /// SNORD28 /// SNORD29 /// SNORD31 / Fold change (Aza/veh), C12orf56 (ProbeSet 11735607_a_at) / Fold change (ACY-1035/veh), C12orf56 (ProbeSet 11735607_a_at) / Fold change (Aza/veh), FGFR1OP (ProbeSet 11751329_s_at) / Fold change (ACY-1035/veh), FGFR1OP (ProbeSet 11751329_s_at) / Fold change (Aza/veh), VPS36 (ProbeSet 11739960_a_at) / Fold change (ACY-1035/veh), VPS36 (ProbeSet 11739960_a_at) / RFU SYPL1 (11715823_x_at) / Fold change /veh SYPL1 (11715823_x_at) / RFU IGFBP7 (11715501_s_at) / Fold change /veh IGFBP7 (11715501_s_at) / RFU REEP3 (11722064_at) / Fold change /veh REEP3 (11722064_at) / RFU IGLL1 (11728026_x_at) / Fold change /veh IGLL1 (11728026_x_at): dose or concentration left out as unconfirmed
Details: ProbeSet 11724763_s_at; LIST D

Nc1ccc(-c2cccs2)cc1NC(=O)c1ccc2c(c1)cc(C1CC1)n2CCN1CCOCC1 [ACY-1035] was tested, and the “Fold change vs veh, DEPTOR” value was 0.84.
